From patent publication US10808018B2, “Erythropoietin-derived peptides and methods of protecting cells from oxidative damage induced by reactive oxygen species” (SYLUS CO., LTD., priority 2017, dated 2020)
Peptide text beside a SMILES is read from it.

Biological target: T1, Soluble mouse EPOR chimera proteins (erythropoietin receptor) (Mus musculus, UniProt P14753)
T1 construct: Soluble mouse EPOR chimera proteins; purchased R&D Systems
T1 sequence (P14753 25-249 limits assumed): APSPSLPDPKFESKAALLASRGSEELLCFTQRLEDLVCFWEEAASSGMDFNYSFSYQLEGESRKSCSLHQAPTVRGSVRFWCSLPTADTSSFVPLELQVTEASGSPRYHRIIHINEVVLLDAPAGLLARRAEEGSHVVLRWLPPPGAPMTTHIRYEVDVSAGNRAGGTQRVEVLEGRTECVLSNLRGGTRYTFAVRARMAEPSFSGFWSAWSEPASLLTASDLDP
Assay: Surface plasmon resonance (SPR) binding affinity to erythropoietin receptor
Conditions: for Ka: association rate
Description: The SPR technique is to measure interactions between biomolecules in real-time by using an optical principle without specific labeling, and is a system analyzing affinity between two molecules and kinetics, i.e., an association rate (Ka) and a dissociation rate (Kd). In detail, real-time SPR analysis may be performed using Reichert SPR Biosensor SR […] instrument (Reichert Inc., NY, USA). Soluble mouse EPOR chimera proteins (R&D Systems, Minneapolis, Minn., USA) were covalently linked to a carboxymethylated dextran matrix-coated chip (BR-1005-39, Pharmacia Biosensor AB) by an amine coupling procedure using an amine coupling kit (BR-1000-50, GE Healthcare, USA) in accordance with manufacturer's instructions. Each 5 pM, 2.5 pM, and 1.25 pM of the peptide samples of the present disclosure and scrambled peptides were applied at a flow rate of 5 μl/minute, and the experiments were independently performed in duplicate. For signal normalization, DMSO was applied at a flow rate of 5 μl/minute. After each binding cycle, the sensor chip was regenerated by injecting 25 mM of acetic acid at a flow rate of 20 μl/minute.

SMILES | Ka (Table 9) | dissociation rate constant (koff) (Table 9) | Ka (Table 8) | dissociation rate constant (koff) (Table 8)
CC(C)C[C@H](NC(=O)CNC(=O)[C@H](CCCCN)NC(=O)[C@@H](NC(=O)[C@H](CCCNC(=N)N)NC(=O)[C@H](CCCCN)NC(=O)[C@H](CCCCN)NC(=O)[C@@H](NC(=O)[C@H](Cc1c[nH]cn1)NC(=O)[C@H](CCCNC(=N)N)NC(=O)[C@H](CCC(N)=O)NC(=O)[C@@H](N)CC(C)C)C(C)C)C(C)C)C(=O)N[C@@H](CCCCN)C(=O)N[C@@H](CO)C(=O)N[C@@H](CC(C)C)C(=O)N[C@H](C(=O)N[C@H](C(=O)N[C@@H](CC(C)C)C(=O)N[C@@H](CC(C)C)C(=O)N[C@@H](CCCNC(=N)N)C(=O)N[C@@H](C)C(=O)N[C@@H](CC(C)C)C(=O)NCC(=O)O)[C@@H](C)O)[C@@H](C)O [ML1-C3] (H-LQRHVKKRVKGLKSLTTLLRALG-OH; N-terminus and C-terminus assumed) | 1104.9 | 0.01086 |  | 
CC(C)C[C@H](NC(=O)[C@H](C)NC(=O)[C@H](CCCNC(=N)N)NC(=O)[C@H](CC(C)C)NC(=O)[C@H](CC(C)C)NC(=O)[C@@H](NC(=O)[C@@H](NC(=O)[C@H](CC(C)C)NC(=O)[C@H](CO)NC(=O)[C@H](CCCNC(=N)N)NC(=O)[C@H](CC(C)C)NC(=O)CNC(=O)[C@H](CO)NC(=O)[C@@H](NC(=O)[C@H](C)NC(=O)[C@H](CCCCN)NC(=O)[C@@H](N)CC(=O)O)C(C)C)[C@@H](C)O)[C@@H](C)O)C(=O)O [ML8] (H-DKAVSGLRSLTTLLRAL-OH; N-terminus and C-terminus assumed) |  |  | 1.8 × 10^2 | 0.8 × 10^−1
CC[C@H](C)[C@H](NC(=O)[C@H](C)NC(=O)[C@H](CCC(=O)O)NC(=O)[C@H](CCCCN)NC(=O)[C@H](CCC(N)=O)NC(=O)[C@H](C)NC(=O)CNC(=O)[C@H](CC(C)C)NC(=O)[C@H](C)NC(=O)[C@H](CCCNC(=N)N)NC(=O)[C@H](CC(C)C)NC(=O)[C@@H](NC(=O)[C@H](Cc1c[nH]cn1)NC(=O)[C@@H](NC(=O)[C@H](CC(C)C)NC(=O)[C@@H](NC(=O)[C@H](CCCCN)NC(=O)[C@H](CC(C)C)NC(=O)CNC(=O)[C@H](CO)NC(=O)[C@@H](NC(=O)[C@H](C)NC(=O)[C@H](CCCCN)NC(=O)[C@@H](N)CCCCN)C(C)C)[C@@H](C)O)[C@@H](C)O)[C@@H](C)CC)C(=O)O [ML4-1] (H-KKAVSGLKTLTHILRALGAQKEAI-OH; N-terminus and C-terminus assumed) |  |  | 4.10 × 10^2 | 1.20 × 10^−2
CC(C)C[C@H](NC(=O)CNC(=O)[C@H](C)NC(=O)[C@@H](NC(=O)[C@H](C)NC(=O)[C@H](CCCCN)NC(=O)[C@@H](N)CC(N)=O)C(C)C)C(=O)N[C@@H](CCCNC(=N)N)C(=O)N[C@@H](CO)C(=O)N[C@@H](CC(C)C)C(=O)N[C@H](C(=O)N[C@H](C(=O)N[C@@H](CC(N)=O)C(=O)O)C(C)C)[C@@H](C)O [ML8-1] (H-NKAVAGLRSLTVN-OH; N-terminus and C-terminus assumed) |  |  |  | 1.5 × 10^−1
CC(C)C[C@H](NC(=O)[C@H](C)NC(=O)[C@H](CCCNC(=N)N)NC(=O)[C@H](CC(C)C)NC(=O)[C@H](CC(C)C)NC(=O)[C@@H](NC(=O)[C@@H](NC(=O)[C@H](CC(C)C)NC(=O)[C@H](CO)NC(=O)[C@H](CCCNC(=N)N)NC(=O)[C@H](CC(C)C)NC(=O)CNC(=O)[C@H](CO)NC(=O)[C@@H](NC(=O)[C@H](C)NC(=O)[C@H](CCCCN)NC(=O)[C@H](CC(=O)O)NC(=O)[C@@H](NC(=O)[C@H](Cc1c[nH]cn1)NC(=O)[C@@H](N)CC(C)C)C(C)C)C(C)C)[C@@H](C)O)[C@@H](C)O)C(=O)O [ML2] (H-LHVDKAVSGLRSLTTLLRAL-OH; N-terminus and C-terminus assumed) |  |  |  | 4.4 × 10^−3
CC(C)[C@H](NC(=O)[C@H](CCCNC(=N)N)NC(=O)[C@@H](N)[C@@H](C)O)C(=O)N[C@@H](CC(N)=O)C(=O)N[C@@H](Cc1ccc(O)cc1)C(=O)N[C@@H](CCC(N)=O)C(=O)N[C@@H](C)C(=O)N[C@@H](Cc1c[nH]c2ccccc12)C(=O)N[C@@H](CCCCN)C(=O)N[C@@H](CCCNC(=N)N)C(=O)O [ML3-1] (H-TRVNYQAWKR-OH; N-terminus and C-terminus assumed) |  |  | 3.08 × 10^3 | 1.3 × 10^−2
CC(C)C[C@H](NC(=O)CNC(=O)[C@H](CO)NC(=O)[C@@H](NC(=O)[C@H](CCCNC(=N)N)NC(=O)[C@H](CCCCN)NC(=O)[C@H](CC(=O)O)NC(=O)[C@@H](NC(=O)[C@H](Cc1c[nH]cn1)NC(=O)[C@H](CCCNC(=N)N)NC(=O)[C@H](CCC(N)=O)NC(=O)[C@@H](N)CC(C)C)C(C)C)C(C)C)C(=O)N[C@@H](CCCNC(=N)N)C(=O)N[C@@H](CO)C(=O)N[C@@H](CC(C)C)C(=O)N[C@H](C(=O)N[C@H](C(=O)N[C@@H](CC(C)C)C(=O)N[C@@H](CC(C)C)C(=O)N[C@@H](CCCNC(=N)N)C(=O)N[C@@H](C)C(=O)N[C@@H](CC(C)C)C(=O)NCC(=O)O)[C@@H](C)O)[C@@H](C)O [ML1-C2] (H-LQRHVDKRVSGLRSLTTLLRALG-OH; N-terminus and C-terminus assumed) | 1.59E+03 | 0.01876 |  | 
CC[C@H](C)[C@H](NC(=O)[C@H](CCSC)NC(=O)[C@H](C)NC(=O)[C@H](CC(C)C)NC(=O)[C@@H](NC(=O)[C@H](CCCNC(=N)N)NC(=O)[C@H](CC(C)C)NC(=O)CNC(=O)[C@H](C)NC(=O)[C@@H](NC(=O)[C@H](C)NC(=O)[C@H](CCCCN)NC(=O)[C@H](CC(C)C)NC(=O)[C@@H](NC(=O)[C@H](Cc1c[nH]cn1)NC(=O)[C@H](CC(C)C)NC(=O)[C@H](CCC(N)=O)NC(=O)[C@@H](N)CC(C)C)C(C)C)C(C)C)[C@@H](C)O)C(=O)N[C@@H](CCCNC(=N)N)C(=O)N[C@@H](CCCNC(=N)N)C(=O)N[C@@H](C)C(=O)N[C@@H](CC(C)C)C(=O)N[C@@H](C)C(=O)O [ML1-H3] (H-LQLHVLKAVAGLRTLAMIRRALA-OH; N-terminus and C-terminus assumed) | 4157.6 | 4.77E−03 |  | 
CC(C)C[C@H](NC(=O)CNC(=O)[C@@H](N)CO)C(=O)N[C@@H](CCCNC(=N)N)C(=O)N[C@@H](CO)C(=O)N[C@@H](CC(C)C)C(=O)N[C@H](C(=O)N[C@H](C(=O)N[C@@H](CC(C)C)C(=O)N[C@@H](CC(C)C)C(=O)N[C@@H](CCCNC(=N)N)C(=O)N[C@@H](C)C(=O)N[C@@H](CC(C)C)C(=O)NCC(=O)O)[C@@H](C)O)[C@@H](C)O [ML5] (H-SGLRSLTTLLRALG-OH; N-terminus and C-terminus assumed) |  |  | 3.04 × 10^2 | 0.1 × 10^−3
CSCC[C@H](NC(=O)[C@@H](NC(=O)[C@H](Cc1c[nH]cn1)NC(=O)[C@H](CO)NC(=O)[C@H](CC(C)C)NC(=O)[C@H](CC(C)C)NC(=O)CNC(=O)[C@H](CO)NC(=O)[C@@H](NC(=O)[C@H](CCCNC(=N)N)NC(=O)[C@H](CCCCN)NC(=O)[C@H](CC(C)C)NC(=O)[C@@H](NC(=O)[C@H](Cc1c[nH]cn1)NC(=O)[C@H](CC(C)C)NC(=O)[C@H](CCC(N)=O)NC(=O)[C@@H](N)CC(C)C)C(C)C)C(C)C)[C@@H](C)O)C(=O)N[C@@H](CC(C)C)C(=O)N[C@@H](CC(C)C)C(=O)N[C@@H](CCCCN)C(=O)N[C@@H](C)C(=O)N[C@@H](CC(C)C)C(=O)NCC(=O)O [ML1-1] (H-LQLHVLKRVSGLLSHTMLLKALG-OH; N-terminus and C-terminus assumed) |  |  | 5.55 × 10^3 | 5.9 × 10^−3
